Here are results for 19 molecules from patent US5104884A, “Triazolyl quinoline derivatives” (Alkaloida Vegyeszeti Gyar, priority 1985, dated 1992).

Assay [1] relates to Erysiphe graminis f. sp. tritici. Nature of the assay: antifungal effect on Erysiphe graminis (powdery mildew on wheat plants, glasshouse). Format: in vivo. The conditions noted are these: Blumeria graminis; for inhibition at 50 µg/mL: 50 μg/ml; for inhibition at 100 µg/mL: 100 μg/ml; for inhibition at 150 µg/mL: 150 μg/ml; for inhibition at 200 µg/mL: 200 μg/ml; for inhibition at 400 µg/mL: 400 μg/ml; for inhibition at 25 µg/mL: 25 μg/ml. As to the method:
The compounds of the general Formula (I) are particularly effective against powdery mildew. In Table IV the activity of some compounds of the general […] against Erysiphe graminis f. sp. tritici strain are disclosed.
The following test method is used: Glasshouse conditions: temperature 20° C.; relative humidity 80%; strength of illumination 6000 lux. The test plants MV-9 Automn wheat are cultivated in pots diameter 20 cm in a 1:1 mixture of sand and perlite. The average number of plants per pot amounts to 180, the height of the plants is 6-7 cm. About 8 ml of the aqueous suspension of the test compound is applied onto the plants with the aid of a sprayer.
The rate of infectedness is determined after 8 days. Activity is calculated from the percental inhibition values. As control commercial products Fundazol 50 WP and Karathene LC 50 are used.

Assay [2] in a line: hot (56° C.) plate test on mice (analgesic effect). Type of assay: in vivo, male and female CFLP strain mice. The conditions noted are these: Mus musculus, po, 1 h, read-out: Lengthening of reaction time in %; for change in vivo at 25 mg/kg: 25 mg/kg p.o.; for change in vivo at 50 mg/kg: 50 mg/kg p.o.; for change in vivo at 100 mg/kg: 100 mg/kg p.o. As to the method: The analgesic effect of the compounds of the present invention is tested according to the hot (56° C.) plate test on male and female CFLP strain mice weighing 18-22 g. The point of time of the appearence of the deterring reaction Abwehrreaktion is determined and related to the latent time measured on the control group Woolfe and McDonald 1944. At least 10 animals are used per dose. […] The test is carried out on separated male Wistar rats weighing 180-210 g and fasted for 16 hours. The test compounds are suspended in 1% carboxy methyl cellulose and administered orally in a dose of 10 ml/kg.

Assay [3] can be described thus: adjuvant induced arthritis in rats, method of Newbold. Type of assay: in vivo, male Wistar rats. Conditions: Rattus norvegicus, po, 504 h, 25 mg/kg p.o. daily for two weeks, read-out: Percental inhibition of the growth of paw volume, on the 21st day. As to the method:
According to the method of Newbold 0.1 ml of Freund complet adjuvant (Difco Lab. Mich. […] The volume of the hind paws is measured before and 21 days after the administration of the adjuvant with the aid of a mercury plethysmometer. […] In Table II the "percental inhibition of the growth of paw volume" relates to the value determined on the 21st day. […] The tests show furthermore that the compounds of the present invention are active not only in healing morphological deformations but effect in a desirable and useful manner the functional condition and fitness of the feet, moreover the general physical state and condition of the animals, too.

Assay [4] is described as follows: carrageenin edema inhibition in rats (antiphlogistic effect), Winter method. The conditions noted are these: Rattus norvegicus, po, rats; for inhibition in vivo at 12.5 mg/kg: 12.5 mg/kg p.o.; for inhibition in vivo at 12.5 mg/kg / inhibition in vivo at 25 mg/kg / inhibition in vivo at 100 mg/kg / inhibition in vivo at 50 mg/kg: read-out: Percental inhibition of paw volume; for inhibition in vivo at 25 mg/kg: 25 mg/kg p.o.; for inhibition in vivo at 100 mg/kg: 100 mg/kg p.o.; for ED50: carrageenin edema, p.o., regression analysis, read-out: ED50; for inhibition in vivo at 50 mg/kg: 50 mg/kg p.o. Format: in vivo, male Wistar rats. The method, then:
Thus the orally administered compounds of the general Formula (I) efficiently reduce acute inflammatory processes. According to the method of Winter [Proc. Soc. Exp. Biol. Med. 111, 544 (1962)] carrageenin edema is induced and evaluated on male Wistar rats fasted for 16 hours body weight 160-180 g. Percental inhibition is calculated from the average edema values of the groups treated with the test compound on the one hand and with carrier carboxy methyl cellulose, CMC; control on the other. ED50 values are determined by means of regression analysis of the inhibition values. The test compounds are administered through a stomach canule in the form of a 1% carboxy methyl cellulose (CMC) suspension, one hour before introducing the carrageenin injection.

Take `Clc1ccc2c(-n3cncn3)ccnc2c1` [Compound 1, 4-(1H-1,2,4-triazole-1-yl)-7-chloro-quinoline]: testing at 37.5 µg/mL in assay [1] (37.5 μg/ml) gave an inhibition of 50.6%. Besides, in assay [1], the inhibition (usually the drop in the measured response relative to a control, in per cent) at 50 µg/mL is 72.6%; the inhibition at 100 µg/mL turned out to be 85.3%; at 150 µg/mL the inhibition was 36.8%; the inhibition at 200 µg/mL came out at 90.1%. Moreover, the inhibition at 400 µg/mL in assay [1] came to 99.6%. This molecule came in with an inhibition at 75 µg/mL in assay [1] (75 μg/ml) of 83%.
In assay [1], `Cc1cc(-n2cncn2)c2cccc(C)c2n1` [Compound 6, 4-(1H-1,2,4-triazole-1-yl)-2,8-dimethyl-quinoline] yielded an inhibition at 25 µg/mL of 49.2%, an inhibition at 50 µg/mL of 71.6%, an inhibition at 100 µg/mL of 85.1% and an inhibition at 200 µg/mL of 89.5%. This molecule also displayed an inhibition at 400 µg/mL in assay [1] of 99.4%.
Regarding `COc1cccc2c(-n3cncn3)cc(C)nc12` [Compound 8], in assay [1], testing at 25 µg/mL gave an inhibition of 42.1%, the inhibition at 50 µg/mL was found to be 70.9%, the inhibition at 100 µg/mL was found to be 82% and 150 µg/mL produced 84.1% inhibition. Besides, in assay [1], the inhibition at 200 µg/mL came out at 91.9% and the inhibition at 400 µg/mL came to 98.8%.
With `Cc1cc(-n2cncn2)c2cccc(Cl)c2n1` [Compound 10], in assay [1], at 25 µg/mL the inhibition was 20.3%, 50 µg/mL produced 42.8% inhibition, testing at 100 µg/mL gave an inhibition of 76.4% and 200 µg/mL produced 92.7% inhibition. Further, in assay [1], 400 µg/mL produced 90.1% inhibition.
In assay [1], `Cc1cc(-n2cncn2)c2ccc(Cl)c(Cl)c2n1` [Compound 22] displayed an inhibition at 25 µg/mL of 40.8%, an inhibition at 50 µg/mL of 67.7%, an inhibition at 100 µg/mL of 79.8% and an inhibition at 200 µg/mL of 93%. In assay [1], this molecule showed an inhibition at 400 µg/mL of 96.9%.
As for `Cc1cc(Sc2nc[nH]n2)c2cccc(Cl)c2n1` [Compound 46], in assay [2], the change in vivo at 25 mg/kg worked out at 7%, the change in vivo at 50 mg/kg is 18% and the change in vivo at 100 mg/kg came to 38%. The inhibition in vivo at 25 mg/kg in assay [3] was 28.1%.
As to `Cc1nc(Sc2ccnc3cc(Cl)ccc23)n[nH]1` [Compound 61], in assay [2], the change in vivo at 25 mg/kg turned out to be 20%, the change in vivo at 50 mg/kg was found to be 22% and the change in vivo at 100 mg/kg turned out to be 26%. The inhibition in vivo at 25 mg/kg in assay [3] worked out at 38.2%. Besides, in assay [4], the inhibition in vivo at 12.5 mg/kg amounted to 29%; the inhibition in vivo at 25 mg/kg came out at 37%; the inhibition in vivo at 100 mg/kg came out at 58%; the ED50 – broadly, the dose that gives a 50% effect, or the effect in half of the subjects – worked out at 60.9 mg/kg.
`Cc1cc(Sc2n[nH]c(C)n2)c2ccccc2n1` [Compound 62]: the change in vivo at 12.5 mg/kg in assay [2] (12.5 mg/kg p.o.) was 17%. Besides, in assay [2], the change in vivo at 25 mg/kg came to 19%, the change in vivo at 50 mg/kg is 30% and the change in vivo at 100 mg/kg came to 38%. Besides, the inhibition in vivo at 25 mg/kg in assay [3] was determined as 40.3%. In addition, in assay [4], the inhibition in vivo at 12.5 mg/kg amounted to 18%, the inhibition in vivo at 25 mg/kg came out at 51%, the inhibition in vivo at 50 mg/kg turned out to be 59% and the inhibition in vivo at 100 mg/kg turned out to be 69%. Further, the ED50 in assay [4] was found to be 38.4 mg/kg.
`Cc1cc(Sc2n[nH]c(C)n2)c2cccc(C)c2n1` [Compound 64]: in assay [2], the change in vivo at 25 mg/kg came out at 17%, the change in vivo at 50 mg/kg was determined as 39% and the change in vivo at 100 mg/kg amounted to 44%. In addition, in assay [3], the inhibition in vivo at 25 mg/kg was found to be 40.6%. For the same molecule, in assay [4], the inhibition in vivo at 12.5 mg/kg turned out to be 15%, the inhibition in vivo at 25 mg/kg was 27%, the inhibition in vivo at 50 mg/kg turned out to be 44% and the inhibition in vivo at 100 mg/kg was determined as 65%. Also, in assay [4], the ED50 was found to be 59.1 mg/kg.
For `Cc1cc(Sc2n[nH]c(C)n2)c2cccc(C(F)(F)F)c2n1` [Compound 67], in assay [3], the inhibition in vivo at 25 mg/kg was found to be 32.8%.
Consider `Cc1cc(Sc2n[nH]c(C)n2)c2ccc(Cl)c(C)c2n1` [Compound 69], for which, in assay [2], the change in vivo at 25 mg/kg came to 13%, the change in vivo at 50 mg/kg amounted to 24% and the change in vivo at 100 mg/kg worked out at 30%. In addition, the inhibition in vivo at 25 mg/kg in assay [3] is 35.2%. Moreover, in assay [4], the inhibition in vivo at 12.5 mg/kg stood at 27%, the inhibition in vivo at 25 mg/kg worked out at 33%, the inhibition in vivo at 50 mg/kg was found to be 52% and the inhibition in vivo at 100 mg/kg is 86%. Moreover, the 50% effective dose (ED50) in assay [4] came to 35 mg/kg.
On to `CCc1nc(Sc2cc(C)nc3ccc(C)cc23)n[nH]1` [Compound 74], for which, in assay [2], the change in vivo at 25 mg/kg is 19%, the change in vivo at 50 mg/kg came to 26% and the change in vivo at 100 mg/kg was determined as 43%. In addition, in assay [4], the inhibition in vivo at 12.5 mg/kg was found to be 26%, the inhibition in vivo at 25 mg/kg came to 55%, the inhibition in vivo at 50 mg/kg came out at 69% and the ED50 is 25.7 mg/kg.
`Cc1cc2ccccc2nc1-n1cncn1` [Compound 83, 2-(1H-1,2,4-triazole-1-yl)-3-methyl-quinoline]: in assay [2], the change in vivo at 25 mg/kg came to 16%, the change in vivo at 50 mg/kg was 28% and the change in vivo at 100 mg/kg was determined as 59%. For the same molecule, in assay [3], the inhibition in vivo at 25 mg/kg amounted to 46.7%. In assay [4], the inhibition in vivo at 12.5 mg/kg was 21%, the inhibition in vivo at 25 mg/kg was determined as 63%, the inhibition in vivo at 50 mg/kg was found to be 70% and the inhibition in vivo at 100 mg/kg turned out to be 72%. Further, in assay [4], the ED50 was 28.1 mg/kg.
`Cc1ccc2cc(C)c(-n3cncn3)nc2c1` [Compound 85]: the inhibition in vivo at 25 mg/kg in assay [3] was 28.4%.
Consider `Cc1cc2ccccc2nc1Sc1nc[nH]n1` [Compound 107], for which, in assay [2], the change in vivo at 25 mg/kg came out at 34%, the change in vivo at 50 mg/kg stood at 41% and the change in vivo at 100 mg/kg is 88%. Also, the inhibition in vivo at 25 mg/kg in assay [3] is 17.8%. In assay [4], the inhibition in vivo at 12.5 mg/kg is 29%, the inhibition in vivo at 25 mg/kg stood at 40%, the inhibition in vivo at 50 mg/kg is 70% and the inhibition in vivo at 100 mg/kg stood at 74%. The ED50 in assay [4] worked out at 30.6 mg/kg.
Turning to `Cc1ccc2nc(Sc3nc[nH]n3)c(C)cc2c1` [Compound 108], in assay [2], the change in vivo at 25 mg/kg was determined as 34%, the change in vivo at 50 mg/kg turned out to be 46% and the change in vivo at 100 mg/kg was found to be 46%. For the same molecule, in assay [3], the inhibition in vivo at 25 mg/kg is 35.2%. In assay [4], the inhibition in vivo at 12.5 mg/kg worked out at 19%, the inhibition in vivo at 25 mg/kg came out at 45%, the inhibition in vivo at 50 mg/kg was determined as 61% and the inhibition in vivo at 100 mg/kg was 70%. Moreover, the median effective dose (ED50) in assay [4] is 38.5 mg/kg.
Turning to `Cc1ccc2cc(C)c(Sc3nc[nH]n3)nc2c1` [Compound 109], the inhibition in vivo at 25 mg/kg in assay [3] came out at 36.7%.
Take `Cc1cc2cccc(C)c2nc1Sc1nc[nH]n1` [Compound 110]: in assay [2], the change in vivo at 25 mg/kg is 21%, the change in vivo at 50 mg/kg worked out at 34% and the change in vivo at 100 mg/kg was 52%. The inhibition in vivo at 25 mg/kg in assay [3] is 32.1%. In addition, in assay [4], the inhibition in vivo at 12.5 mg/kg is 10%, the inhibition in vivo at 25 mg/kg stood at 42%, the inhibition in vivo at 50 mg/kg is 46% and the inhibition in vivo at 100 mg/kg came out at 61%. The ED50 in assay [4] stood at 51.4 mg/kg.
As to `CCc1nc(Sc2nc3ccc(C)cc3cc2C)n[nH]1` [Compound 138], in assay [2], the change in vivo at 25 mg/kg came to 25%, the change in vivo at 50 mg/kg stood at 37% and the change in vivo at 100 mg/kg was determined as 82%. In addition, the inhibition in vivo at 25 mg/kg in assay [3] stood at 35.2%.
